Assays:
Type in all cases: in vivo, male Wistar rats
CDHFD/NaNO2 rats = test: Quantitative IHC of the myofibroblast marker desmin in liver, CDHFD/NaNO2 rat model of NASH; details: for liver % desmin marker area: mean±SEM, vehicle-treated CDHFD/NaNO2 rats 10.3±0.8%, healthy control 0.7±0.1%; for reduction of liver desmin staining: vs vehicle-treated CDHFD/NaNO2 rats, Formula (I) 0.2% in diet, Formula (III) 30 mg/kg/day, week 4 to 14
Description: The following study was conducted to evaluate the efficacy of the combination of an ASK1 inhibitor and an FXR agonist in a rodent model of non-alcoholic steatohepatitis (NASH), relative to the efficacy of the individual agents alone in the model. NASH was induced in male Wistar rats by administration of a choline-deficient high fat diet (CDHFD) combined with the chronic administration of sodium nitrite (CDHFD/NaNO2). The model capitalizes on the “two hit theory” of NASH by inducing both metabolic dysfunction (CDHFD) and oxidative stress (NaNO2) in the liver to result in hepatic fibrosis that is similar in character and severity to that seen in patients with advanced NASH. Rats were fed CDHFD for a total of 14 weeks and were administered NaNO2 from week 4 to 14. The compound of Formula (III) (given as admixture in diet, adjusted to deliver 30 mg/kg/day), compound of Formula (I) (administered as a 0.2% admixture in diet), or vehicle was administered from week 4 to 14. The following endpoints were assessed at the completion of the 14 week study: i) liver fibrosis measured by liver hydroxyproline (OHP) content and by quantitative morphometric analysis of collagen content by Picosirius red (PSR) staining; ii) myofibroblast activation in liver sections as measured by quantitative IHC of the myofibroblast marker desmin; and, iii) Col1a1 and Timp1 in liver tissue measured by RT-PCR. All CDHFD/NaNO2 animals were fed a choline-deficient high-fat diet (CDHFD; Research Diets, Inc) for 14 weeks and were also administered intraperitoneal injections of NaNO2 (3 injections per week; Sigma Aldrich #31443) at a dose of 25 mg/kg (from week 4 to 10) and at a dose of 12.5 mg/kg (from week 10 to 14). Formula (III) (given as admixture in the CDHFD diet, adjusted to deliver 30 mg/kg/day, n=10 animals per group) and Formula (I) (given as a 0.2% admixture in the CDHFD diet, n=10 per group) were administered drug from week 4 to 14. Vehicle control animals were administered the same CDHFD diet with no drug added (Vehicle; n=10 animals per group) from week 4 to 14. […] On the final day of study, rats received a single oral gavage of either Formula (I) or Formula (III) at a dose of 30 mg/kg, four hours before animals were euthanized and tissues were collected for analyses. All endpoints were assessed at the completion of the 14 week study protocol. Whole slide images of Picrosirius Red (PSR) and Desmin stained slides were captured using a Leica AT2 scanner at 40× magnification. […] Quantitative image analysis was performed on the whole slide-scan images using Definiens Tissue Studio Architect XD (Definiens Inc.) to determine the extent and intensity of PSR and Desmin. […] The total PSR-stained area and Desmin IHC staining were measured and expressed as a percentage of total liver area stained.

TIMP-1 = test: Hepatic expression of TIMP-1 by qRT-PCR, CDHFD/NaNO2 rat model of NASH; details: vs vehicle; rats; Formula (I) 0.2% in diet, Formula (III) 30 mg/kg/day, week 4 to 14
Description: (§1) The following study was conducted to evaluate the efficacy of the combination of an ASK1 inhibitor and an FXR agonist in a rodent model of non-alcoholic steatohepatitis (NASH), relative to the efficacy of the individual agents alone in the model. NASH was induced in male Wistar rats by administration of a choline-deficient high fat diet (CDHFD) combined with the chronic administration of sodium nitrite (CDHFD/NaNO2). The model capitalizes on the “two hit theory” of NASH by inducing both metabolic dysfunction (CDHFD) and oxidative stress (NaNO2) in the liver to result in hepatic fibrosis that is similar in character and severity to that seen in patients with advanced NASH. […] The following endpoints were assessed at the completion of the 14 week study: i) liver fibrosis measured by liver hydroxyproline (OHP) content and by quantitative morphometric analysis of collagen content by Picosirius red (PSR) staining; ii) myofibroblast activation in liver sections as measured by quantitative IHC of the myofibroblast marker desmin; and, iii) Col1a1 and Timp1 in liver tissue measured by RT-PCR. […] All endpoints were assessed at the completion of the 14 week study protocol. […] Quantitative PCR was performed and analyzed using Absolute QPCR Rox Mix (Life Technologies, Cat No # AB-1132) and a 384-format ABI 7900HT Sequence Detection System (Applied Biosystems). […]

Col1a1 = test: Hepatic expression of Col1a1 by qRT-PCR, CDHFD/NaNO2 rat model of NASH; details: vs vehicle; rats; Formula (I) 0.2% in diet, Formula (III) 30 mg/kg/day, week 4 to 14
Description: as §1

| Structure (SMILES) | liver % desmin marker area (CDHFD/NaNO2 rats) [%] | reduction of liver desmin staining (CDHFD/NaNO2 rats) [%] | reduction of hepatic TIMP-1 expression induced by CDHFD/NaNO2 (TIMP-1) | reduction of hepatic Col1a1 expression induced by CDHFD/NaNO2 (Col1a1) [%] |
| --- | --- | --- | --- | --- |
| O=C(Nc1cccc(-c2nncn2C2CC2)c1)c1cc(-n2cnc(C3CC3)c2)ccn1 [Formula (I)] | 5.6±0.7 | 46 | 28% | 65 |
| O=C(O)c1ccnc(N2CC(O)(c3ccc(OCc4c(-c5c(Cl)cccc5Cl)noc4C4CC4)cc3Cl)C2)c1 [Formula (III)] | 5.9±0.7 | 43 | did not significantly reduce | 44 |
